Test results from US7611852B2, “Functional cardiomyocytes from human embryonic stem cells” (Wisconsin Alumni Research Foundation, priority 2002, dated 2009).

Columns and labels:
[1] = system: human embryonic stem cell-derived cardiomyocytes (beating EB outgrowths); assay: Contraction measurements of beating EB outgrowths by video edge detection during electrical field stimulation; format: cell-based; details: 1 micromolar, EB electrically stimulated at 1 hertz, basal level defined as 100, FIG. 1
Text: One problem in the testing of cardiomyocytes in EBs is that the rate of spontaneous beating is variable can be dependent on a variety of factors. […] This can be readily done by applying an electrical field stimulation to the EB. This is done most simply by applying electrodes to opposite sides of the culture container in which the EB is contained. […] It is necessary as a part of this process to maintain the EB culture at a constant temperature, since temperature changes can also effect the amplitude of EB beats. It is possible to optically scan the EBs during such beating, using imaging processing observing the EB with video microscopy, to determine the amplitude of the beats which occur in such an EB. […] Additionally other properties of the beat can be monitored such as the rate of contraction and relaxation of the embryoid body providing additional mechanistic information. […]
Contractions were measured using video edge detection. […] Individual beating EBs were monitored with Video Edge Detector VED 105 (Crescent Electronics) through CCD BW Camera NL-2332 (National Electronic) and Sony BW Video Monitor PVM-97 (Sony Corp). The twitch responses at sharp edge of beating EB outgrowth were recorded at 1 kHz through DigiData 1200 A/D converter with pClamp 8.2 acquisition software (both from Axon Instrument, Foster City, Calif.). […]

[2] = system: embryonic atrial-like cardiomyocytes; assay: Intracellular action potential recording with sharp microelectrodes, embryonic atrial-like cardiomyocytes in EBs; format: cell-based, human
Text: The applicants here have determined that the HERG channel response of cardiomyocytes in culture created from human embryonic stem cells can be tested and that they do have the same responsive characteristics as mature heart cells in adult humans. Shown in FIG. 5 is an experiment conducted on an atrial type cell, which is a cardiomyocyte in an EB in culture. Note that the electrical profile of the potential generated by that cell, labeled basal in FIG. 5, is characteristic of an embryonic atrial type action potential. To the culture in which that basal signal was being observed, 500 nanomolar E4031 was added. E4031 is a known highly specific HERG channel blocker which blocks the rapid delayed rectifying potassium current (IKr) in adult human heart cells. The addition of that chemical to the medium in which the EB was cultured led to the modification of the action potential generated by that atrial type cell, as illustrated by the curve marked “500 nM E4031” in FIG. 5. The action potential was prolonged due to delayed return to a resting state. This is precisely the effect that this molecule, E4031, is known to have on adult heart cells and precisely the effect that one would predict from the blockage of the HERG channel.
(§1) A single beating, microdissected EB outgrowth was cultured on a glass coverslip for 1-10 days. The coverslip was then attached to the bottom of an experimental chamber mounted on an inverted microscope (Nikon Diaphot 200). The EBs were perfused with Tyrodes solution consisting of (mmol/L): 140 NaCl, 1 MgCl2, 10 HEPES, 10 Glucose, 1.8 CaCl2, pH 7.4 with NaOH at 37° C. Contractions were measured using video edge detection. For intracellular electrophysiology experiments, sharp glass microelectrodes were fabricated with resistances of 30-100 MΩ when filled with 3 mol/L KCl. Spontaneously beating EBs were impaled with the microelectrodes and pipette capacitance was nulled. […] In some experiments, the preparation underwent electrical field stimulation at rates from 1 to 3 Hz. Data were digitized at 20 kHz and filtered at 2 kHz. APs were analyzed using pClamp8.02 (Axon Instruments, Foster City, Calif.) and Origin 6.0 software (Microcal Inc, Northampton, Mass.) to determine AP duration at 50% and 90% of repolarization (APD50 and APD90), AP amplitude (APA), maximum diastolic potential (MDP), and the maximum rate of rise of the AP upstroke (dV/dtmax).
Repolarization of the cardiac action potential is due to multiple ionic currents with an important role played by voltage gated K+ channels; however, there is significant species variability of the exact type of K+ channels present. In human heart, current through HERG potassium channels (KCNH2), IKr, plays a major role in repolarization of the action potential. […]

[3] = system: embryonic ventricular-like cardiomyocytes; format: cell-based; details: 500 nM E-4031
[4] = system: human embryonic stem cell-derived cardiomyocytes; assay: Intracellular action potential recording with sharp microelectrodes, cell type not specified; format: cell-based; details: 500 nM E-4031
Procedure: as §1
Repolarization of the cardiac action potential is due to multiple ionic currents with an important role played by voltage gated K+ channels; however, there is significant species variability of the exact type of K+ channels present. […]

| SMILES | amplitude of the beat or contraction of the EB [1] | APD50 ([2]; 500 nM E-4031) | APD90 ([2]; 500 nM E-4031) | action potential duration ([2]; 500 nM E-4031) | action potential duration ([2]; 500 nanomolar E4031 added to EB culture, atrial type cell, FIG. 5) | APD50 [3] | action potential duration [3] | APD90 ([3]; larger effect on APD90 than APD50) | APA (action potential amplitude) [4] | MDP (maximum diastolic potential) [4] |
| --- | --- | --- | --- | --- | --- | --- | --- | --- | --- | --- |
| CC(C)NCC(O)c1ccc(O)c(O)c1 (stereo not shown) [isoproterenol] | increases dramatically | – | – | – | – | – | – | – | – | – |
| Cc1cccc(CCN2CCC(C(=O)c3ccc(NS(C)(=O)=O)cc3)CC2)n1 [E-4031] | – | not APD50 was significantly prolonged | significantly prolonged | action potential prolongation | prolonged | significant prolongation | action potential prolongation | significant prolongation | not statistically significant effects | not statistically significant effects |
